# Results published in US20220409578A1, “FUNCTIONALIZED 1,3-BENZENE DIOLS AND THEIR METHOD OF USE FOR THE TREATMENT OF RADIATION DERMATITIS AND OTHER SKIN DISORDERS” (KANNALIFE SCIENCES, INC., priority 2019, published 2022).
# Key:
# IL-8 = IL-8 release, nickel-induced allergy in human dermal microvascular endothelial cells (ELISA); format: cell-based; conditions: co-treatment with NiSO4, HDMECs
# Procedure: (§1) Dermal Microvascular endothelial cells of human origin were cultured in vitro using standard conditions (37° C., 95% v/v air, 5% v/v CO2). Human cells were selected as relevant to cell types within skin tissues for this development program. Cell culture methods are commonly used in non-clinical studies conducted on pharmaceutical products. […] Cells were cultured until the third and fourth passage and then acclimated for 24 hours before Nickel induction and dosing procedures. Cell treatment groups were identified using appropriate 96-well plates. The test and control articles were administered to medium containing 1 mM NiSO4 in triplicates. The negative control group received vehicle-only (0.1% v/v final) dose. A fixed 0.1 μL/well from 1000× stock dose volume was administered to 100 μL of media to each cell culture well on Day 2 and incubated for 6 hours at 37 degrees. These cell cultures were also utilized to determine the concentrations of test agent that were non-toxic after 24 hours of incubation.
# Assay for Interleukin-8: Test material was applied in vitro for the ability to inhibit pro-inflammatory (IL-8) cytokine secretion by cultured HDMECs co-treated with Nickel (NiSO4). Clobetasol propionate was tested as positive control material for anti-inflammatory activity. The pro-inflammatory cytokine (IL-8) was quantified by enzyme-linked immunosorbent assay (ELISA) after inflammatory induction and incubation with test and control materials. Interleukin-8 levels in cell culture medium are markers of inflammation signaling by endothelial cells present in skin microvascular tissue in response to irritation. Interleukin-8 (IL-8) levels were assessed using BD Biosciences OptEIA™ Human IL-8 ELISA Set kit (Cat. No. 555244) and Reagent Set B (Cat. No. 550534) according to the manufacture's specifications. Absorbance was measured at 450 nm using plate reader and interleukin-8 levels were calculated from a standard curve.
# [1] = system: human dermal microvascular endothelial cells; format: cell-based; conditions: 6 h
# Procedure: as §1, with “incubation. Cell Viability assays were conducted using MTS reduction assays (Promega) diluted 1:5 in DMEM+10% FBS media as specified by the manufacturer. Absorbance was measured at 490 nm using plate reader and cell viability was calculated as a percent of control. This assay was done along with all culture systems that were utilized to study cytokine release. […]” for “incubation.”
# [2] = system: human dermal fibroblast cells; format: cell-based; conditions: 24 h
# Procedure: Primary dermal fibroblasts cells of human origin were cultured in vitro using standard conditions (37° C., 95% v/v air, 5% v/v CO2). Primary dermal fibroblasts from neonatal donor were used from human origin and purchased from Thermo-Fisher (Cat No. […]). […] Cells were cultured until the second passage and then acclimated for 48 hours before UVA irradiation and dosing procedures conducted in 24-well plates. On Day 3, test materials were dosed to cell culture media and pre-incubated for 6 hours. Treatment media was then removed and replaced with phosphate buffer saline (PBS) without test materials and Ultraviolet-A (UV-A) was irradiated at 12.5 J/cm^2 using FS-20/T-12 bulbs (315-400 nm). After UV-A irradiation, PBS was replaced with fresh DMEM medium with test materials and incubated for 18 hours at standard culture conditions. After incubation, culture medium supernatants were harvested and used to measure human IL-6 levels by ELISA method. In vitro dosing route was selected to test the activity of KLS-13022 after pro-inflammatory inducer UV-A irradiation, since isolated human cell culture provide direct activity indication and specific cell-type effects. Human cells were selected as relevant to cell types within skin tissues for this development program. […] Absorbance was measured at 490 nm using plate reader and cell viability was calculated as a percent of control. […]
# [3] = Antioxidant capacity (ABTS/metmyoglobin assay); format: biochemical; conditions: OD 750 nm, 15 minutes after hydrogen peroxide
# Procedure: Antioxidant capacity: The purpose of this study was to evaluate the overall antioxidant capacity of KLS-13022 for the ability to inhibit the oxidation of ABTS. (2,2′-Azino-di-[3-ethylbenzthiazoline sulphonate]) to ABTS.^+ by metmyoglobin. Ascorbic acid (Vitamin C) was used as positive antioxidant control in the assay. The testing involved the suppression of optical density (OD) at 750 nm to a degree, which is proportional to an effective oxidation inhibition. Neat solutions were prepared for materials formulated in HPLC-grade water (ascorbic acid) or 200-proof ethanol (KLS-13022). Serial dilutions were prepared for each material and mixed with metmyoglobin enzyme in assay buffer solution. All samples were compared to vehicle-only treated samples used as negative oxidation inhibition. Optical density changes at 750 nm were evaluated 15 minutes after addition of hydrogen peroxide to each sample. Average absorbance was calculated and plotted for each sample concentration. Effective antioxidant inhibition activity based on the change of absorbance of blank (vehicle-only) sample (no material added). […] The Antioxidant assay kit was obtained from Cayman Chemical Co. (Ann Arbor, Mich.). The assay consisted in the evaluation of the overall antioxidant capacity of test materials for the ability to inhibit the oxidation of ABTS. to ABTS.^+ by metmyoglobin. […]
structure (smiles),measurement,setting,value
"C=C(C)[C@@H]1CCC(C)=C[C@H]1c1c(O)cc(CC2CN(C(=O)OCC)C2)cc1O [KLS-13022, ethyl 3-(3,5-dihydroxy-4-((1R,6R)-3-methyl-6-(prop-1-en-2-yl)cyclohex-2-enyl)benzyl)azetidine-1-carboxylate]",IC50,"IL-8; Homo sapiens, Endothelial cell, read-out: IC50 of IL-8 inhibition",0.3 µM
same,maximum IL-8 inhibition,IL-8,78%
same,non-toxic concentration range,[1],≤ 12 µM
same,non-toxic concentration range,[2],≤ 1.67 µM
same,toxic concentration,[2],3.3 µM
same,EC50,[3],25.6 µM
